# Legend:
# Assay in all cases: ≥ marks a high value that may be exact or a test limit, other limits are often not marked, values filed in µg/mL are converted to µM
# [1] = system: Escherichia coli DSM 1103
# [2] = system: Pseudomonas aeruginosa DSM 1117
# [3] = system: Staphylococcus aureus DSM 1104
# [4] = system: Staphylococcus epidermidis DSM 1798
# [5] = system: Mycobacterium tuberculosis H37Rv
# Proteus mirabilis = system: Proteus mirabilis
# Shigella dysenteriae = system: Shigella dysenteriae
# Klebsiella pneumoniae = system: Klebsiella pneumoniae
# Pseudomonas aeruginosa = system: Pseudomonas aeruginosa
# Salmonella typhimurium = system: Salmonella typhimurium
# Staphylococcus aureus = system: Staphylococcus aureus
# Bacillus subtilis = system: Bacillus subtilis
# Micrococcus luteus = system: Micrococcus luteus
# [6] = system: Staphylococcus epidermidis
# Escherichia coli = system: Escherichia coli
# Leuconostoc lactis = system: Leuconostoc lactis
# Enterococcus faecalis = system: Enterococcus faecalis
# Pasteurella multocida = system: Pasteurella multocida
# Listeria innocua = system: Listeria innocua
# Bacillus cereus = system: Bacillus cereus
# Streptococcus uberis = system: Streptococcus uberis
# [7] = system: Corynebacterium glutamicum ATCC 13032
# [8] = system: Escherichia coli ATCC 25922
# [9] = system: Pseudomonas aeruginosa ATCC 27853
# [10] = system: Staphylococcus aureus ATCC 9144
# [11] = system: Salmonella enterica subsp. enterica serovar Typhimurium ATCC 14028
# [12] = system: Bacillus cereus ATCC 11778
# [13] = system: Klebsiella aerogenes ATCC 13048
# [14] = system: Staphylococcus aureus ATCC 29213
# Acinetobacter baumannii = system: Acinetobacter baumannii
smiles,measurement,setting,value
CC[C@H](C)[C@H](NC(=O)CNC(=O)[C@@H](NC(=O)[C@H](C)N)C(C)C)C(=O)NCC(=O)N[C@@H](C)C(=O)N[C@@H](CC(C)C)C(=O)N[C@@H](Cc1ccccc1)C(=O)N[C@@H](CC(C)C)C(=O)NCC(=O)N[C@@H](Cc1ccccc1)C(=O)N[C@@H](CC(C)C)C(=O)NCC(=O)N[C@@H](C)C(=O)N[C@@H](C)C(=O)NCC(=O)N[C@@H](CO)C(=O)N[C@H](C(=O)N[C@@H](CCSC)C(=O)NCC(=O)N[C@@H](C)C(=O)N[C@@H](CCCN=C(N)N)C(=O)N[C@@H](CO)C(N)=O)[C@@H](C)O [AVGIGALFLGFLGAAGSTMGARS],MIC,[1],≥ 117 µM
same,MIC,[2],≥ 117 µM
same,MIC,[3],≥ 117 µM
same,MIC,[4],≥ 117 µM
CC(C)C[C@H](NC(=O)[C@H](Cc1c[nH]c2ccccc12)NC(=O)[C@H](Cc1c[nH]c2ccccc12)NC(=O)[C@H](CCCN=C(N)N)NC(=O)[C@H](CO)NC(=O)[C@H](CC(C)C)NC(=O)[C@H](CCCCN)NC(=O)[C@H](CCCCN)NC(=O)[C@@H](NC(=O)[C@H](C)N)C(C)C)C(=O)N[C@@H](CCCN=C(N)N)C(=O)N[C@@H](Cc1c[nH]c2ccccc12)C(=O)N[C@@H](Cc1c[nH]c2ccccc12)C(=O)N[C@@H](CCCCN)C(=O)N[C@@H](CCCCN)C(=O)O [AVKKLSRWWLRWWKK],MIC,[5],18.1 µM
CC(C)C[C@H](NC(=O)[C@H](C)NC(=O)CNC(=O)[C@H](CC(C)C)NC(=O)[C@@H](N)Cc1ccccc1)C(=O)N[C@@H](Cc1ccccc1)C(=O)N[C@@H](CCCCN)C(=O)N[C@H](C(=O)N[C@@H](C)C(=O)N[C@@H](Cc1c[nH]c2ccccc12)C(=O)N[C@@H](CCCCN)C(=O)O)C(C)C [FLGALFKVAWK],MIC,Proteus mirabilis,≥ 156 µM
same,MIC,Shigella dysenteriae,≥ 78.2 µM
same,MIC,Klebsiella pneumoniae,39.1 µM
same,MIC,Pseudomonas aeruginosa,> 156 µM
same,MIC,Salmonella typhimurium,≥ 156 µM
same,MIC,Staphylococcus aureus,9.77 µM
same,MIC,Bacillus subtilis,19.5 µM
same,MIC,Micrococcus luteus,19.5 µM
same,MIC,[6],≥ 39.1 µM
same,MIC,Escherichia coli,78.2 µM
CC(C)C[C@H](NC(=O)[C@H](C)NC(=O)CNC(=O)[C@H](CC(C)C)NC(=O)[C@@H](N)Cc1ccccc1)C(=O)N[C@@H](Cc1ccccc1)C(=O)N[C@@H](CCCCN)C(=O)N[C@H](C(=O)N[C@@H](Cc1c[nH]c2ccccc12)C(=O)N[C@@H](CO)C(=O)N[C@@H](CCCCN)C(=O)O)C(C)C [FLGALFKVWSK],MIC,Proteus mirabilis,≥ 154 µM
same,MIC,Shigella dysenteriae,≥ 154 µM
same,MIC,Klebsiella pneumoniae,> 154 µM
same,MIC,Pseudomonas aeruginosa,> 154 µM
same,MIC,Salmonella typhimurium,≥ 154 µM
same,MIC,Staphylococcus aureus,> 154 µM
same,MIC,Bacillus subtilis,≥ 154 µM
same,MIC,Micrococcus luteus,≥ 154 µM
same,MIC,[6],≥ 154 µM
same,MIC,Escherichia coli,> 154 µM
CC(C)C[C@H](NC(=O)[C@H](C)NC(=O)CN)C(=O)N[C@@H](Cc1ccccc1)C(=O)N[C@@H](CCCCN)C(=O)N[C@H](C(=O)N[C@@H](C)C(=O)N[C@@H](CO)C(=O)N[C@@H](CCCCN)C(=O)N[C@H](C(=O)N[C@@H](CC(C)C)C(=O)N1CCC[C@H]1C(=O)N[C@@H](CO)C(=O)O)C(C)C)C(C)C [GALFKVASKVLPS],MIC,Proteus mirabilis,≥ 152 µM
same,MIC,Shigella dysenteriae,≥ 152 µM
same,MIC,Klebsiella pneumoniae,> 152 µM
same,MIC,Pseudomonas aeruginosa,> 152 µM
same,MIC,Salmonella typhimurium,≥ 152 µM
same,MIC,Staphylococcus aureus,> 152 µM
same,MIC,Bacillus subtilis,≥ 152 µM
same,MIC,Micrococcus luteus,≥ 152 µM
same,MIC,[6],≥ 152 µM
same,MIC,Escherichia coli,> 152 µM
CC[C@H](C)[C@H](NC(=O)[C@H](C)NC(=O)[C@@H]1CCCN1C(=O)[C@@H](NC(=O)[C@@H](NC(=O)[C@H](Cc1cnc[nH]1)NC(=O)[C@H](C)NC(=O)[C@H](C)NC(=O)[C@@H](NC(=O)[C@H](CCCCN)NC(=O)[C@H](C)NC(=O)[C@H](CC(C)C)NC(=O)[C@@H](NC(=O)CNC(=O)[C@H](Cc1ccccc1)NC(=O)[C@H](CC(C)C)NC(=O)CN)C(C)C)C(C)C)C(C)C)C(C)C)C(=O)N[C@@H](C)C(=O)N[C@@H](CCC(=O)O)C(=O)N[C@@H](Cc1cnc[nH]1)C(=O)N[C@@H](Cc1ccccc1)C(=O)O [GLFGVLAKVAAHVVPAIAEHF],MIC,Leuconostoc lactis,23.3 µM
same,MIC,Enterococcus faecalis,≥ 46.6 µM
same,MIC,Pasteurella multocida,≥ 46.6 µM
same,MIC,Listeria innocua,≥ 46.6 µM
same,MIC,Bacillus cereus,≥ 46.6 µM
same,MIC,Staphylococcus aureus,> 46.6 µM
same,MIC,Streptococcus uberis,≥ 46.6 µM
same,MIC,Micrococcus luteus,≥ 46.6 µM
same,MIC,[6],≥ 46.6 µM
same,MIC,Escherichia coli,> 46.6 µM
CC[C@H](C)[C@H](NC(=O)[C@H](C)NC(=O)CNC(=O)[C@H](C)NC(=O)[C@H](CCCN=C(N)N)NC(=O)[C@H](CO)NC(=O)[C@H](C)NC(=O)[C@H](CCSC)NC(=O)CN)C(=O)N[C@@H](C)C(=O)NCC(=O)N[C@@H](CCCN=C(N)N)C(=O)N[C@H](C(=O)N[C@@H](C)C(=O)N[C@@H](CCCN=C(N)N)C(=O)N[C@H](C(=O)N[C@@H](C)C(=O)N[C@@H](CC(C)C)C(=O)N[C@@H](CCCN=C(N)N)C(=O)N[C@@H](C)C(=O)N[C@@H](CC(C)C)C(N)=O)C(C)C)[C@@H](C)CC [GMASRAGAIAGRIARVALRAL],MIC,[1],7 µM
same,MIC,[2],≥ 113 µM
same,MIC,[3],4 µM
same,MIC,[4],2 µM
CC(C)[C@H](NC(=O)[C@@H](NC(=O)[C@H](CCCN=C(N)N)NC(=O)[C@H](CCCN=C(N)N)NC(=O)[C@H](Cc1c[nH]c2ccccc12)NC(=O)[C@H](Cc1c[nH]c2ccccc12)NC(=O)CN)[C@@H](C)O)C(=O)N[C@@H](CCCN=C(N)N)C(=O)N[C@@H](CCCCN)C(N)=O [GWWRRTVRK],MIC,[7],3.1 µM
same,MIC,[8],50 µM
same,MIC,[9],25 µM
same,MIC,[10],≥ 100 µM
CC[C@H](C)[C@H](N)C(=O)N[C@@H](CC(C)C)C(=O)NCC(=O)N[C@@H](CCCCN)C(=O)N[C@@H](CC(C)C)C(=O)N[C@@H](Cc1c[nH]c2ccccc12)C(=O)N[C@@H](CCC(=O)O)C(=O)NCC(=O)N[C@@H](CC(C)C)C(=O)N[C@@H](CCCCN)C(=O)N[C@@H](CO)C(=O)N[C@@H](CC(C)C)C(=O)N[C@@H](Cc1ccccc1)C(N)=O [ILGKLWEGLKSLF],MIC,[11],66.5 µM
same,MIC,[12],≥ 66.5 µM
same,MIC,[13],≥ 66.5 µM
same,MIC,[8],33.2 µM
same,MIC,[14],33.2 µM
CC(C)C[C@H](NC(=O)[C@H](Cc1c[nH]c2ccccc12)NC(=O)[C@H](CCCCN)NC(=O)[C@H](CC(C)C)NC(=O)[C@H](CC(C)C)NC(=O)[C@H](CCCCN)NC(=O)[C@H](CCCN=C(N)N)NC(=O)[C@H](Cc1c[nH]c2ccccc12)NC(=O)[C@H](CCCCN)NC(=O)[C@@H](N)CCCCN)C(=O)N[C@@H](C)C(=O)N[C@@H](CCCCN)C(=O)N[C@@H](CCCCN)C(N)=O [KKWRKLLKWLAKK],MIC,Enterococcus faecalis,1.56 µM
same,MIC,Pseudomonas aeruginosa,0.753 µM
same,MIC,Acinetobacter baumannii,1.33 µM
same,MIC,Staphylococcus aureus,2.49 µM
CC[C@H](C)[C@H](NC(=O)[C@H](CCCN=C(N)N)NC(=O)CNC(=O)[C@H](C)NC(=O)[C@@H](NC(=O)[C@H](CCCN=C(N)N)NC(=O)[C@H](C)NC(=O)[C@@H](NC(=O)[C@H](CCCN=C(N)N)NC(=O)CNC(=O)[C@H](C)NC(=O)[C@@H](NC(=O)[C@H](CCCN=C(N)N)NC(=O)[C@H](C)NC(=O)[C@@H](NC(=O)[C@H](CCCN=C(N)N)NC(=O)CNC(=O)[C@H](C)NC(=O)[C@@H](NC(=O)[C@@H](N)CCCN=C(N)N)[C@@H](C)CC)[C@@H](C)CC)[C@@H](C)CC)[C@@H](C)CC)[C@@H](C)CC)C(=O)N[C@@H](C)C(N)=O [RIAGRIARIAGRIARIAGRIA],MIC,[1],6 µM
same,MIC,[2],26 µM
same,MIC,[3],3 µM
same,MIC,[4],2 µM
